Data reported in PubChem BioAssay (NCI).
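96-well plates; 48 h exposure; 5 concentrations. Endpoints by linear interpolation between flanking doses. Not reached: highest tested concentration assigned. Abbreviation: GI50, concentration required for 50% inhibition of growth. TGI: total growth inhibition.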

Key:
Experiment in all cases: inhibition of tumour cell growth, NCI panel, 48 h
[1] = tested on: 786-0 renal
[2] = tested on: A498 renal
[3] = tested on: A549 NSCLC
[4] = tested on: ACHN renal
[5] = tested on: BT-549 breast
[6] = tested on: CAKI-1 renal
[7] = tested on: CCRF-CEM leukemia
[8] = tested on: COLO 205 colon
[9] = tested on: DU-145 prostate
[10] = tested on: EKVX NSCLC
[11] = tested on: HCC-2998 colon
[12] = tested on: HCT-116 colon
[13] = tested on: HCT-15 colon
[14] = tested on: HL-60(TB) leukemia
[15] = tested on: HOP-62 NSCLC
[16] = tested on: HOP-92 NSCLC
[17] = tested on: HS 578T breast
[18] = tested on: HT29 colon
[19] = tested on: IGROV1 ovarian
[20] = tested on: K-562 leukemia
[21] = tested on: KM12 colon
[22] = tested on: LOX IMVI melanoma
[23] = tested on: M14 melanoma
[24] = tested on: MALME-3M melanoma
[25] = tested on: MCF7 breast
[26] = tested on: MDA-MB-231 breast
[27] = tested on: MDA-MB-435
[28] = tested on: MDA-N
[29] = tested on: MOLT-4 leukemia
[30] = tested on: NCI-H226 lung
[31] = tested on: NCI-H23 lung
[32] = tested on: NCI-H460 lung
[33] = tested on: NCI-H522 lung
[34] = tested on: NCI/ADR-RES ovarian
[35] = tested on: OVCAR-3 ovarian
[36] = tested on: OVCAR-4 ovarian
[37] = tested on: OVCAR-5 ovarian
[38] = tested on: OVCAR-8 ovarian
[39] = tested on: PC-3 prostate
[40] = tested on: RPMI-8226 leukemia
[41] = tested on: RXF 393 renal
[42] = tested on: SF-268 CNS
[43] = tested on: SF-295 CNS
[44] = tested on: SF-539 CNS
[45] = tested on: SK-MEL-2 melanoma
[46] = tested on: SK-MEL-28 melanoma
[47] = tested on: SK-MEL-5 melanoma
[48] = tested on: SK-OV-3 ovarian
[49] = tested on: SN12C renal
[50] = tested on: SNB-19 CNS
[51] = tested on: SNB-75 CNS
[52] = tested on: SR leukemia
[53] = tested on: SW-620 colon
[54] = tested on: T-47D breast
[55] = tested on: TK-10 renal
[56] = tested on: U251 CNS
[57] = tested on: UACC-257 melanoma
[58] = tested on: UACC-62 melanoma
[59] = tested on: UO-31 renal

Which TGI [1] does the source give for `O=NNc1ccc(S(=O)c2ccccc2)cn1` (centres undefined) here?
The TGI was > 100 µM.

What about the TGI [2] of the same molecule?
Its TGI is > 100 µM.

And the TGI [3]?
Its TGI is > 100 µM.

What about the TGI [4] of the same molecule?
Its TGI is > 100 µM.

What about the TGI [5] of the same molecule?
Its TGI is > 100 µM.

What about the TGI [6] of the same molecule?
Its TGI is > 100 µM.

And the TGI [7]?
Its TGI is > 100 µM.

What about the TGI [8] of the same molecule?
The TGI was > 100 µM.

And the TGI [9]?
The TGI was > 100 µM.

And the TGI [10]?
Its TGI is > 100 µM.

And the GI50 [11]?
Its GI50 is > 100 µM.

What about the TGI [11] of the same molecule?
Its TGI is > 100 µM.

What about the TGI [12] of the same molecule?
The TGI was > 100 µM.

And the TGI [13]?
The TGI was > 100 µM.

And the TGI [14]?
The TGI was > 100 µM.

And the TGI [15]?
The TGI was > 100 µM.

And the GI50 [16]?
The GI50 was 12.2 µM.

What about the TGI [16] of the same molecule?
The TGI was > 100 µM.

And the TGI [17]?
Its TGI is > 100 µM.

What about the TGI [18] of the same molecule?
The TGI was > 100 µM.

And the TGI [19]?
Its TGI is > 100 µM.

What about the TGI [20] of the same molecule?
The TGI was > 100 µM.

And the TGI [21]?
The TGI was > 100 µM.

What about the GI50 [22] of the same molecule?
Its GI50 is > 100 µM.

What about the TGI [22] of the same molecule?
The TGI was > 100 µM.

And the TGI [23]?
Its TGI is > 100 µM.

What about the TGI [24] of the same molecule?
The TGI was > 100 µM.

And the TGI [25]?
Its TGI is > 100 µM.

And the TGI [26]?
The TGI was > 100 µM.

And the GI50 [27]?
The GI50 was > 100 µM.

And the TGI [27]?
The TGI was > 100 µM.

And the TGI [28]?
The TGI was > 100 µM.

And the TGI [29]?
Its TGI is > 100 µM.

And the TGI [30]?
Its TGI is > 100 µM.

What about the TGI [31] of the same molecule?
The TGI was > 100 µM.

What about the TGI [32] of the same molecule?
Its TGI is > 100 µM.

And the TGI [33]?
Its TGI is > 100 µM.

And the TGI [34]?
The TGI was > 100 µM.

And the TGI [35]?
Its TGI is > 100 µM.

And the TGI [36]?
The TGI was > 100 µM.

And the TGI [37]?
The TGI was > 100 µM.

What about the TGI [38] of the same molecule?
The TGI was > 100 µM.

And the TGI [39]?
The TGI was > 100 µM.

What about the GI50 [40] of the same molecule?
The GI50 was > 100 µM.

And the TGI [40]?
Its TGI is > 100 µM.

And the TGI [41]?
The TGI was > 93.7 µM.

What about the TGI [42] of the same molecule?
The TGI was > 100 µM.

What about the TGI [43] of the same molecule?
The TGI was > 100 µM.

And the TGI [44]?
Its TGI is > 100 µM.

What about the GI50 [45] of the same molecule?
Its GI50 is > 100 µM.

And the TGI [45]?
Its TGI is > 100 µM.

What about the TGI [46] of the same molecule?
The TGI was > 100 µM.

What about the TGI [47] of the same molecule?
The TGI was > 100 µM.

What about the TGI [48] of the same molecule?
The TGI was > 100 µM.

And the TGI [49]?
The TGI was > 100 µM.

And the TGI [50]?
The TGI was > 100 µM.

What about the TGI [51] of the same molecule?
Its TGI is > 100 µM.

And the TGI [52]?
Its TGI is > 100 µM.

And the TGI [53]?
The TGI was > 100 µM.

And the TGI [54]?
The TGI was > 100 µM.

And the TGI [55]?
The TGI was > 100 µM.

And the TGI [56]?
The TGI was > 100 µM.

And the TGI [57]?
The TGI was > 100 µM.

And the TGI [58]?
The TGI was > 100 µM.

And the TGI [59]?
Its TGI is > 100 µM.

How did the TGI [1] turn out when `Cn1c([N+](=O)[O-])cnc1CN1CCN(CCO)CC1` was run?
Its TGI is > 100 µM.

And the TGI [2]?
The TGI was > 100 µM.

And the TGI [3]?
The TGI was > 100 µM.

What about the TGI [4] of the same molecule?
The TGI was > 100 µM.

And the TGI [5]?
Its TGI is > 100 µM.

And the TGI [6]?
The TGI was > 100 µM.

And the TGI [7]?
Its TGI is > 100 µM.

And the TGI [8]?
The TGI was > 100 µM.

What about the TGI [9] of the same molecule?
Its TGI is > 100 µM.

What about the TGI [10] of the same molecule?
The TGI was > 100 µM.

What about the TGI [11] of the same molecule?
Its TGI is > 100 µM.

And the TGI [12]?
The TGI was > 100 µM.

And the TGI [13]?
The TGI was > 100 µM.

What about the TGI [14] of the same molecule?
The TGI was > 100 µM.

What about the TGI [15] of the same molecule?
The TGI was > 100 µM.

And the TGI [16]?
Its TGI is > 100 µM.

And the TGI [17]?
The TGI was > 100 µM.

And the TGI [18]?
Its TGI is > 100 µM.

And the TGI [19]?
The TGI was > 100 µM.

And the TGI [20]?
The TGI was > 100 µM.

What about the TGI [21] of the same molecule?
Its TGI is > 100 µM.

And the TGI [22]?
The TGI was > 100 µM.

What about the TGI [23] of the same molecule?
The TGI was > 100 µM.

And the TGI [24]?
Its TGI is > 100 µM.

What about the TGI [25] of the same molecule?
The TGI was > 100 µM.

And the TGI [26]?
The TGI was > 100 µM.

And the TGI [27]?
The TGI was > 100 µM.

And the TGI [28]?
The TGI was > 100 µM.

What about the TGI [29] of the same molecule?
Its TGI is > 100 µM.

What about the TGI [30] of the same molecule?
The TGI was > 100 µM.

And the TGI [31]?
The TGI was > 100 µM.

What about the TGI [32] of the same molecule?
Its TGI is > 100 µM.

And the TGI [33]?
Its TGI is > 100 µM.

What about the TGI [34] of the same molecule?
The TGI was > 100 µM.

And the TGI [35]?
Its TGI is > 100 µM.

What about the TGI [36] of the same molecule?
The TGI was > 100 µM.

What about the TGI [37] of the same molecule?
Its TGI is > 100 µM.

What about the TGI [38] of the same molecule?
The TGI was > 100 µM.

And the TGI [39]?
The TGI was > 100 µM.

And the TGI [40]?
The TGI was > 100 µM.

What about the TGI [41] of the same molecule?
Its TGI is > 100 µM.

What about the TGI [42] of the same molecule?
Its TGI is > 100 µM.

What about the TGI [43] of the same molecule?
Its TGI is > 100 µM.

And the TGI [44]?
The TGI was > 100 µM.

What about the TGI [45] of the same molecule?
Its TGI is > 100 µM.

What about the TGI [46] of the same molecule?
Its TGI is > 100 µM.

What about the TGI [47] of the same molecule?
Its TGI is > 100 µM.

And the TGI [48]?
The TGI was > 100 µM.

And the TGI [49]?
Its TGI is > 100 µM.

And the TGI [50]?
The TGI was > 100 µM.

What about the TGI [51] of the same molecule?
The TGI was > 100 µM.

And the TGI [52]?
The TGI was > 100 µM.

And the TGI [53]?
The TGI was > 100 µM.

What about the TGI [54] of the same molecule?
The TGI was > 100 µM.

What about the TGI [55] of the same molecule?
The TGI was > 100 µM.

What about the TGI [56] of the same molecule?
The TGI was > 100 µM.

And the TGI [57]?
Its TGI is > 100 µM.

What about the TGI [58] of the same molecule?
The TGI was > 100 µM.

What about the TGI [59] of the same molecule?
The TGI was > 100 µM.
